Results as given in US20240016831A1 (priority 2020, published 2024).

Assay type: physicochemical
Settings: pH 3

SMILES	amounts of nitric oxide generated (cumulative NO evolved)
OC[C@@H](O)[C@@H](O)[C@H](O)[C@H](O)CO [mannitol, D-mannitol]	markedly greater amounts of nitric oxide
OC[C@@H](O)[C@@H](O)[C@H](O)[C@@H](O)CO [sorbitol]	markedly greater amounts of nitric oxide
